We go through seven molecules from patent US10941162B2, “Heterocyclic compounds and uses thereof” (Infinity Pharmaceuticals, Inc., priority 2014, dated 2021).

One assay addresses PI3K α (Homo sapiens (Human), UniProt P42336). Briefly: PI3-Kinase in vitro IC50 assay, α isoform. The format is biochemical. The text has this:
(§1) A PI3-Kinase HTRF® assay kit (cat No. 33-016) purchased from Millipore Corporation is used to screen compounds provided herein. This assay uses specific, high affinity binding of the GRP1 pleckstrin homology (PH) domain to PIP3, the product of a Class 1A or 1B PI3 Kinase acting on its physiological substrate PIP2. During the detection phase of the assay, a complex is generated between the GST-tagged PH domain and biotinylated short chain PIP3. The biotinylated PIP3 and the GST-tagged PH domain recruited fluorophores (Streptavidin-Allophycocyanin and Europium-labeled anti-GST respectively) to form the fluorescence resonance energy transfer (FRET) architecture, generating a stable time-resolved FRET signal. The FRET complex is disrupted in a competitive manner by non-biotinylated PIP3, a product formed in the PI3 Kinase assay.
(§2) PI3 Kinase α, β, γ or δ activity is assayed using the PI3 Kinase HTRF®, assay kit (catalogue No. 33-016) purchased from Millipore Corporation. Purified recombinant PI3Kα (catalogue No. 14-602-K), PI3Kβ (catalogue No. 14-603-K), PI3Kγ (catalogue No. 14-558-K), and PI3Kδ (catalogue No. 14-604-K) are obtained from Millipore Corporation. Purified recombinant PI3K enzyme is used to catalyze the phosphorylation of phosphatidylinositol 4,5-bisphosphate (PIP2 at 10 μM) to phosphatidylinositol 3,4,5-trisphosphate (PIP3) in the presence of 10 μM ATP. The assay is carried out in 384-well format and detected using a Perkin Elmer EnVision Xcite Multilabel Reader. Emission ratios are converted into percent inhibitions and imported into GraphPad Prism software. The concentration necessary to achieve inhibition of enzyme activity by 50% (IC50) is calculated using concentrations ranging from 20 μM to 0.1 nM (12-point curve), IC50 values are determined using a nonlinear regression model available in GraphPad Prism 5.
(§3) Promega ADP-Glo Max assay kit (Cat. No. V7002) can be utilized to determine IC50 values for α, β, δ and γ isoforms of human Class I PI3 kinases (Millipore). Samples of kinase (20 nM α or δ, 40 nM β or γ isoform) are incubated with compound for 15 minutes at room temperature in reaction buffer (15 mM HEPES pH 7.4, 20 mM NaCl, 1 mM EGTA, 0.02% Tween 20, 10 mM MgCl2, 0.2 mg/mL bovine-γ-globulins) followed by addition of ATP/diC8-PtdInsP mixture to give final concentrations of 3 mM ATP and 500 uM diC8-PtdInsP. Reactions are incubated at room temperature for 2 hours followed by addition of 25 uL of stop solution. After a 40-minute incubation at room temperature, 50 uL of Promega detection mix is added followed by incubation for 1 hour at room temperature. Plates are then read on Envision plate reader in luminescence mode. Data are converted to % inhibition using the following equation below:
(§4) [formula] where S is the sample luminescence, Pos is a positive control without added PI3K, Neg is the negative control without added compound. Data are then plotted as % inhibition vs compound concentration. Data fit to 4 parameter logistic equation to determine IC50 values: […]

The next assay deals with PI3K β (Homo sapiens, UniProt P42338). Briefly: PI3-Kinase in vitro IC50 assay, β isoform. The format is biochemical. The text has this:
A PI3-Kinase HTRF® assay kit (cat No. 33-016) purchased from Millipore Corporation is used to screen compounds provided herein. This assay uses specific, high affinity binding of the GRP1 pleckstrin homology (PH) domain to PIP3, the product of a Class 1A or 1B PI3 Kinase acting on its physiological substrate PIP2. During the detection phase of the assay, a complex is generated between the GST-tagged PH domain and biotinylated short chain PIP3. The biotinylated PIP3 and the GST-tagged PH domain recruited fluorophores (Streptavidin-Allophycocyanin and Europium-labeled anti-GST respectively) to form the fluorescence resonance energy transfer (FRET) architecture, generating a stable time-resolved FRET signal. The FRET complex is disrupted in a competitive manner by non-biotinylated PIP3, a product formed in the PI3 Kinase assay. PI3 Kinase α, β, γ or δ activity is assayed using the PI3 Kinase HTRF®, assay kit (catalogue No. 33-016) purchased from Millipore Corporation. Purified recombinant PI3Kα (catalogue No. 14-602-K), PI3Kβ (catalogue No. 14-603-K), PI3Kγ (catalogue No. 14-558-K), and PI3Kδ (catalogue No. 14-604-K) are obtained from Millipore Corporation. Purified recombinant PI3K enzyme is used to catalyze the phosphorylation of phosphatidylinositol 4,5-bisphosphate (PIP2 at 10 μM) to phosphatidylinositol 3,4,5-trisphosphate (PIP3) in the presence of 10 μM ATP. The assay is carried out in 384-well format and detected using a Perkin Elmer EnVision Xcite Multilabel Reader. Emission ratios are converted into percent inhibitions and imported into GraphPad Prism software. The concentration necessary to achieve inhibition of enzyme activity by 50% (IC50) is calculated using concentrations ranging from 20 μM to 0.1 nM (12-point curve), IC50 values are determined using a nonlinear regression model available in GraphPad Prism 5. Promega ADP-Glo Max assay kit (Cat. No. V7002) can be utilized to determine IC50 values for α, β, δ and γ isoforms of human Class I PI3 kinases (Millipore). Samples of kinase (20 nM α or δ, 40 nM β or γ isoform) are incubated with compound for 15 minutes at room temperature in reaction buffer (15 mM HEPES pH 7.4, 20 mM NaCl, 1 mM EGTA, 0.02% Tween 20, 10 mM MgCl2, 0.2 mg/mL bovine-γ-globulins) followed by addition of ATP/diC8-PtdInsP mixture to give final concentrations of 3 mM ATP and 500 uM diC8-PtdInsP. Reactions are incubated at room temperature for 2 hours followed by addition of 25 uL of stop solution. After a 40-minute incubation at room temperature, 50 uL of Promega detection mix is added followed by incubation for 1 hour at room temperature. Plates are then read on Envision plate reader in luminescence mode. Data are converted to % inhibition using the following equation below: [formula] where S is the sample luminescence, Pos is a positive control without added PI3K, Neg is the negative control without added compound. Data are then plotted as % inhibition vs compound concentration. Data fit to 4 parameter logistic equation to determine IC50 values: [formula]

A further assay deals with PI3K δ (Homo sapiens (Human), UniProt O00329). Briefly: PI3-Kinase in vitro IC50 assay, δ isoform. The format is biochemical.
From the text: as §1, §2, §3, §4

The next assay concerns the target PI3K γ (Homo sapiens (Human), UniProt P48736). Briefly: PI3-Kinase in vitro IC50 assay, γ isoform. Particulars: for IC50: in vitro; for PI3K δ/PI3K γ IC50 (selectivity): ratio of PI3K δ IC50 to PI3K γ IC50. It counts as biochemical.
From the text: as §1, §2, §3, §4

For a further assay, the target named is p110 δ (Homo sapiens (Human), UniProt O00329). The experiment in a line: RAJI p110 δ assay (PI3K-δ selective cellular assay, phospho-AKT). It counts as cell-based. Particulars: RAJI cells stimulated with anti-human IgM. The source says:
A compound's ability in selectively inhibiting PI3K-δ can be assessed using RAJI cells, i.e., B lymphocyte cells derived from lymphoma patients. Briefly, serum-starved RAJI cells are stimulated with anti-human IgM, thereby causing signaling through the B-cell receptors, as described in, for example, He et al., Leukemia Research (2009) 33: 798-802. B-cell receptor signaling is important for the activation, differentiation, and survival of B cells and certain B-cell derived cancers. Reduction of phospho-AKT is indicative of compounds that may inhibit B-cell proliferation and function in certain diseases. By monitoring the reduction of phospho-AKT in stimulated RAJI cells (using for example, phospho-AKT antibodies), a compound's potential efficacy in selectively inhibiting PI3KS can be assessed.

The target in another assay is p110 γ (Mus musculus (Mouse), UniProt Q9JHG7). The experiment in a line: Raw264.7 p110 γ assay (PI3K-γ selective cellular assay, phospho-AKT). The format is cell-based. Conditions: for IC50: RAW264.7 cells stimulated with C5a, phospho-AKT; for RAJI δ/Raw264.7 γ IC50 (selectivity): ratio of RAJI p110 δ IC50 to Raw264.7 p110 γ IC50. The text has this:
A compound's ability in selectively inhibiting PI3K-γ can be assessed using RAW264.7 macrophages. Briefly, serum-starved RAW264.7 cells are stimulated with a known GPCR agonist C5a. See, e.g., Camps et al., Nature Medicine (2005) 11(9):936-943. Cells can be treated with test compounds prior to, simultaneously with, or subsequent to the stimulation by C5a. RAW 264.7 cells respond to the complement component fragment C5a through activation of the C5a receptor, and the C5a receptor activates macrophages and induces cell migration. Test compounds' ability to inhibit C5a-mediated AKT phosphorylation is indicative of selective inhibition of PI3K-γ. Thus, by monitoring the reduction of phospho-AKT in stimulated RAW 264.7 cells (using for example, phospho-AKT antibodies), a compound's potential efficacy in selectively inhibiting PI3Kγ can be assessed.
Certain compounds provided herein were tested in RAW 264.7 cell model using procedures as described above.

Usually IC50 stands for the concentration that inhibits the measured activity by half. Read a low IC50 as greater potency in that assay.

Sequence of PI3K γ (P48736 whole entry, canonical isoform): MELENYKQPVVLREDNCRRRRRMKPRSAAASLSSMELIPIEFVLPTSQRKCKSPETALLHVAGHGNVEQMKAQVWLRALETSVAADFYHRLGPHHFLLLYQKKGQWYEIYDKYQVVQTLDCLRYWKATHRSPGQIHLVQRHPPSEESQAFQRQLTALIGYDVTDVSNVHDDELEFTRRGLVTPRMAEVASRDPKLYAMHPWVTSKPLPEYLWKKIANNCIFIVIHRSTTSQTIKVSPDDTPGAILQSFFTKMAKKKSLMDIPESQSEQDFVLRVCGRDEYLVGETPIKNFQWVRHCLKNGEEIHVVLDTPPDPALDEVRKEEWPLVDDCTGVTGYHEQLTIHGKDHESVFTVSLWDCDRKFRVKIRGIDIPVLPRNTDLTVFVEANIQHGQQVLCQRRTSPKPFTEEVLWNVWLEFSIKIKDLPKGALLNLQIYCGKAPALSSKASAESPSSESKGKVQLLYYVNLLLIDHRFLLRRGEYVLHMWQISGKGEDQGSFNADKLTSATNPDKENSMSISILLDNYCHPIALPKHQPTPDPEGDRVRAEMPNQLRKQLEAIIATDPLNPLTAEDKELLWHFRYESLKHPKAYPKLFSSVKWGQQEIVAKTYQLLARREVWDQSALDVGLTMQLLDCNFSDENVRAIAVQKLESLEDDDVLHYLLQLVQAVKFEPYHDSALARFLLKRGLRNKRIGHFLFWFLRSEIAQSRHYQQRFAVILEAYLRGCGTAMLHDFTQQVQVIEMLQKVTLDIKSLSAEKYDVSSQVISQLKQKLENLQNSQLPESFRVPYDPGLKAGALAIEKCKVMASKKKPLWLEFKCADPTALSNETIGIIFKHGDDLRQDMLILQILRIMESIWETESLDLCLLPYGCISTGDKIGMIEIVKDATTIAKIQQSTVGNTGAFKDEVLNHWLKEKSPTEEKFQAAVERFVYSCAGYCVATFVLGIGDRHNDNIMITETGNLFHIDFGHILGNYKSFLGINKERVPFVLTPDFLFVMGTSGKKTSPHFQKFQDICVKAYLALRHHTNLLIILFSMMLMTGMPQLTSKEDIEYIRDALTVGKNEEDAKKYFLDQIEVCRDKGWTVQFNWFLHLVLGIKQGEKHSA
Sequence of PI3K β (P42338 whole entry, looked up, the tested form may be a part, canonical isoform): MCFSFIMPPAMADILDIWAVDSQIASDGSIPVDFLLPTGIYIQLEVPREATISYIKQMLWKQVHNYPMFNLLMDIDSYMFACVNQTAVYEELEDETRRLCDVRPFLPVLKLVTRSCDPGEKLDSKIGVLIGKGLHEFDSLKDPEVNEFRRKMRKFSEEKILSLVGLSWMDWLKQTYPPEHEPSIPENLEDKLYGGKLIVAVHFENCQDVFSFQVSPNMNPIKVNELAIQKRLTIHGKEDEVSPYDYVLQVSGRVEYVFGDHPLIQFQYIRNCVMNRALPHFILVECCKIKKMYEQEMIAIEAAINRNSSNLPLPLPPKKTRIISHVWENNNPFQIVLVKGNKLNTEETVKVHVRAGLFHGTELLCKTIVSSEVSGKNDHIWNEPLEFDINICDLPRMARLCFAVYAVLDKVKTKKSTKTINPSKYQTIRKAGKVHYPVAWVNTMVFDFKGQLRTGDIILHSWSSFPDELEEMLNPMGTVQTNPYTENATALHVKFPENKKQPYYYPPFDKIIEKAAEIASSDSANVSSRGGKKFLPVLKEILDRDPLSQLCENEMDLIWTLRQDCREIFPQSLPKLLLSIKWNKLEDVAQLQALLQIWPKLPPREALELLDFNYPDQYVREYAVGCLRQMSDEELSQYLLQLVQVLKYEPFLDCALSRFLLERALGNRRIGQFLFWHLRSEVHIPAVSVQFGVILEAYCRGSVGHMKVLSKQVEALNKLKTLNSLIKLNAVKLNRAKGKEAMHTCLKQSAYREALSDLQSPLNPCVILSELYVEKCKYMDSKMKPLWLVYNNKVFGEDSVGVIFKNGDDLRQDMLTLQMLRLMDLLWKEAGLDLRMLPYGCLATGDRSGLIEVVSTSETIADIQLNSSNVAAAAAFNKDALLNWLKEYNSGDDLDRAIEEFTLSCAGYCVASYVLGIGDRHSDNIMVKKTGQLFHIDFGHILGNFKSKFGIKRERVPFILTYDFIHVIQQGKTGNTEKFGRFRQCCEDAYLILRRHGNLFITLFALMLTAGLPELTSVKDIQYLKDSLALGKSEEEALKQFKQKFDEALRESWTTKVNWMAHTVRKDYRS
Sequence of PI3K δ (O00329 whole entry, canonical isoform): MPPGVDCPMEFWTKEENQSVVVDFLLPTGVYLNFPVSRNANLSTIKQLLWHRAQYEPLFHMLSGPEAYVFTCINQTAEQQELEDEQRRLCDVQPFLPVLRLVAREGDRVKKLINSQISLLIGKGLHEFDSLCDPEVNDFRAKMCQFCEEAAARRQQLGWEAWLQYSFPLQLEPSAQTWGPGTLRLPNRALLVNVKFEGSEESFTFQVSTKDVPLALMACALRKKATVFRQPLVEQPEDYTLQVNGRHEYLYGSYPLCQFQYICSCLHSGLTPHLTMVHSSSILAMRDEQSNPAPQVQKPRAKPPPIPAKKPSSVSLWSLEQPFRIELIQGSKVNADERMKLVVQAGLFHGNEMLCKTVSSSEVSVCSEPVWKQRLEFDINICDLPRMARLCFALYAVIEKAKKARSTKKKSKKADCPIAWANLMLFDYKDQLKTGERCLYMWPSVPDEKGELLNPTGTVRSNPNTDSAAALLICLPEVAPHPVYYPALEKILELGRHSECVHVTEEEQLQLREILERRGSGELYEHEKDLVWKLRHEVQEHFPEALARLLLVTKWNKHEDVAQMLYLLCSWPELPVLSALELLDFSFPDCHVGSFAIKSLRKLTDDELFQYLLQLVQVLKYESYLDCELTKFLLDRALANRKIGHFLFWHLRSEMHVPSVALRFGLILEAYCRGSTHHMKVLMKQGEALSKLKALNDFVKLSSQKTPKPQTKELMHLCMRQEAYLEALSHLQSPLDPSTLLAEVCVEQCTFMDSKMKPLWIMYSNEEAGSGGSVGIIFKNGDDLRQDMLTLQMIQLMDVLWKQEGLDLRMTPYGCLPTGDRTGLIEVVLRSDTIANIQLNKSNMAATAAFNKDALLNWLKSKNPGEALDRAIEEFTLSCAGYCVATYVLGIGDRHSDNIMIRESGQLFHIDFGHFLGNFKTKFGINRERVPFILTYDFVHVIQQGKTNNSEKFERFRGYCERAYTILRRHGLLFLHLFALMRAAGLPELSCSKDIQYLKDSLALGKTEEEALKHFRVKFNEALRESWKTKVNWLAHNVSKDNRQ
Sequence of PI3K δ (P27986 whole entry partner, canonical isoform): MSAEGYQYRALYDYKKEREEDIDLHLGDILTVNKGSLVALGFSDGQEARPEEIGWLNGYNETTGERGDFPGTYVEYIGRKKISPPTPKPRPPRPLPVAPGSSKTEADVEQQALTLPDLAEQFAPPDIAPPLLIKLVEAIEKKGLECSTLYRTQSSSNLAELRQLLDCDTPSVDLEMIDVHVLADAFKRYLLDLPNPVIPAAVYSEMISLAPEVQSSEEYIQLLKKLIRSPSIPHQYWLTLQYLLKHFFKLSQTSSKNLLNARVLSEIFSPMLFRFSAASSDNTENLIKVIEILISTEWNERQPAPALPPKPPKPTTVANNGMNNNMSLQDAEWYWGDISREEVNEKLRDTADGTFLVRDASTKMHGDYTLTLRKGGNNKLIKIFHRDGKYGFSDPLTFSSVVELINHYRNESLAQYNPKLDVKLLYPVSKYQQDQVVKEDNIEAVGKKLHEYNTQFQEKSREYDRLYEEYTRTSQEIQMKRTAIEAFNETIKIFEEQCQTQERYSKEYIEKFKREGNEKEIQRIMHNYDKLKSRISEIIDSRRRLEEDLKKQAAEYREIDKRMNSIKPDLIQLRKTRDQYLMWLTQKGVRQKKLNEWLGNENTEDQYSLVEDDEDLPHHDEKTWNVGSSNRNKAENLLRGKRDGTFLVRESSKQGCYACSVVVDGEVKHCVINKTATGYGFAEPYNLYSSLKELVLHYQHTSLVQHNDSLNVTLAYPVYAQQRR
Sequence of p110 δ (O00329 whole entry): as the sequence (O00329 whole entry, canonical isoform) above
Sequence of p110 δ (P27986 whole entry partner): as the sequence (P27986 whole entry partner, canonical isoform) above

Turning to `C[C@@H](NC(=O)c1c(N)nn2cccnc12)c1oc2cccc(C#Cc3cnn(C)c3)c2c(=O)c1-c1ccccc1` [Compound 103R], the IC50 was 5 to 10 µM on PI3K α; 5 to 10 µM at PI3K β; 5 to 10 µM against PI3K δ; over 5 µM on PI3K γ; 1 to 10 µM at p110 δ; 0.1 to 10 µM against p110 γ. Besides, on PI3K γ, the “PI3K δ/PI3K γ IC50 (selectivity)” value was “V (V = 0.1 to 1)”. Further, at p110 γ, the “RAJI δ/Raw264.7 γ IC50 (selectivity)” value is reported as “X (X = 10 to <50)”.

Consider `C[C@H](NC(=O)c1c(N)nn2cccnc12)c1oc2cccc(C#Cc3cnn(C)c3)c2c(=O)c1-c1ccccc1` [Compound 103S], for which the IC50 on PI3K α is 5 to 10 µM; at PI3K β, 5 to 10 µM; against PI3K δ, 5 to 10 µM; at PI3K γ, 0.1 to 0.5 µM; on p110 δ, 1 to 10 µM; at p110 γ it was 0.001 to 0.05 µM. For the same molecule, the “PI3K δ/PI3K γ IC50 (selectivity)” value on PI3K γ was “X (X = 10 to <50)”. The “RAJI δ/Raw264.7 γ IC50 (selectivity)” value on p110 γ is listed as “Y (Y = 50 to <850)”.

As to `CC(NC(=O)c1c(N)nn2cccnc12)c1oc2cccc(C#Cc3cnn(C)c3)c2c(=O)c1-c1ccccc1` (centres unmarked) [Compound 103], the IC50 on PI3K α fell in the range of 5 to 10 µM; at PI3K β, 5 to 10 µM; against PI3K δ, 5 to 10 µM; against PI3K γ, 1 to 5 µM; on p110 δ, 1 to 10 µM; against p110 γ, 0.05 to 0.1 µM. For the same molecule, the “PI3K δ/PI3K γ IC50 (selectivity)” value at PI3K γ is reported as “W (W = >1 to <10)”. Also, the “RAJI δ/Raw264.7 γ IC50 (selectivity)” value at p110 γ was “X (X = 10 to <50)”.

Turning to `C[C@@H](NC(=O)c1c(N)nn2cccnc12)c1cc2cccc(C#Cc3cnn(C)c3)c2nc1-c1ccccc1` [Compound 175R], the IC50 on PI3K α is 5 to 10 µM; at PI3K β, 5 to 10 µM; at PI3K δ it was 5 to 10 µM; at PI3K γ it was over 5 µM. Besides, at PI3K γ, the “PI3K δ/PI3K γ IC50 (selectivity)” value was “V (V = 0.1 to 1)”.

`C[C@H](NC(=O)c1c(N)nn2cccnc12)c1cc2cccc(C#Cc3cnn(C)c3)c2nc1-c1ccccc1` [Compound 175S]: the half-maximal inhibitory concentration (IC50) on PI3K α is 5 to 10 µM; against PI3K β, 5 to 10 µM; against PI3K δ, 5 to 10 µM; against PI3K γ, 0.1 to 0.5 µM; at p110 δ, 0.1 to 0.5 µM; against p110 γ, 0.001 to 0.05 µM. In addition, the “PI3K δ/PI3K γ IC50 (selectivity)” value on PI3K γ was “X (X = 10 to <50)”. For the same molecule, the “RAJI δ/Raw264.7 γ IC50 (selectivity)” value at p110 γ is on record as “W (W = >1 to <10)”.

As for `C[C@@H](NC(=O)c1c(N)nn2cccnc12)c1nc2cccc(C#Cc3cnn(C)c3)c2cc1-c1ccccc1` [Compound 181R], the IC50 against PI3K α was 5 to 10 µM; at PI3K β it was 5 to 10 µM; at PI3K δ it was 5 to 10 µM; against PI3K γ, over 5 µM; against p110 δ, 1 to 10 µM; against p110 γ it was 0.1 to 10 µM. Moreover, the “PI3K δ/PI3K γ IC50 (selectivity)” value on PI3K γ is listed as “V (V = 0.1 to 1)”. The “RAJI δ/Raw264.7 γ IC50 (selectivity)” value on p110 γ is reported as “V (V = 0.1 to 1)”.

With `C[C@H](NC(=O)c1c(N)nn2cccnc12)c1nc2cccc(C#Cc3cnn(C)c3)c2cc1-c1ccccc1` [Compound 181S], the IC50 against PI3K α is 5 to 10 µM; against PI3K β, 5 to 10 µM; against PI3K δ, 5 to 10 µM; on PI3K γ, over 5 µM; against p110 δ it was 1 to 10 µM; on p110 γ, 0.1 to 10 µM. Moreover, at PI3K γ, the “PI3K δ/PI3K γ IC50 (selectivity)” value is given as “V (V = 0.1 to 1)”. The “RAJI δ/Raw264.7 γ IC50 (selectivity)” value at p110 γ is listed as “Y (Y = 50 to <850)”.
